According to ChEMBL document CHEMBL1201862, “PubChem BioAssay data set” (2004):
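Protocol summary: plate cells (96-well), add compound at 5 concentrations, incubate 48 h, interpolate endpoints linearly. GI50 = concentration required for 50% inhibition of growth.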 Active and inactive are the calls of the source. No stated cut-off is given here; in the data, active = GI50 up to about 1.1 µM and inactive = higher.

Key:
Test in all cases: inhibition of tumour cell growth, NCI panel, 48 h
HCT-116 = system: HCT-116
SW-620 = system: SW-620
NCI-H226 = system: NCI-H226
NCI-H522 = system: NCI-H522
NCI-H23 = system: NCI-H23
EKVX = system: EKVX
HOP-92 = system: HOP-92
RPMI-8226 = system: RPMI-8226
SR = system: SR
SK-MEL-2 = system: SK-MEL-2
NCI-H460 = system: NCI-H460
A549 = system: A549
DU-145 = system: DU-145
LOX IMVI = system: LOX IMVI
KM12 = system: KM12
T47D = system: T47D
UACC-257 = system: UACC-257
UACC-62 = system: UACC-62
SK-MEL-28 = system: SK-MEL-28
BT-549 = system: BT-549
SF-539 = system: SF-539
SN12C = system: SN12C
A498 = system: A498
SNB-19 = system: SNB-19
HCT-15 = system: HCT-15
ACHN = system: ACHN
TK-10 = system: TK-10
OVCAR-4 = system: OVCAR-4
SK-OV-3 = system: SK-OV-3
MOLT-4 = system: MOLT-4
SF-268 = system: SF-268
OVCAR-5 = system: OVCAR-5
MDA-N = system: MDA-N
MCF7 = system: MCF7
SK-MEL-5 = system: SK-MEL-5
OVCAR-8 = system: OVCAR-8
CAKI-1 = system: CAKI-1
SF-295 = system: SF-295
M14 = system: M14
PC-3 = system: PC-3
NCI/ADR-RES = system: NCI/ADR-RES
COLO 205 = system: COLO 205
786-0 = system: 786-0
UO-31 = system: UO-31
CCRF-CEM = system: CCRF-CEM
HT-29 = system: HT-29
K562 = system: K562
HCC 2998 = system: HCC 2998
U-251 = system: U-251
MDA-MB-231 = system: MDA-MB-231
Hs-578T = system: Hs-578T
HOP-62 = system: HOP-62
SNB-75 = system: SNB-75
RXF 393 = system: RXF 393
IGROV-1 = system: IGROV-1
MDA-MB-435 = system: MDA-MB-435
OVCAR-3 = system: OVCAR-3
Malme-3M = system: Malme-3M
HL-60 = system: HL-60

## CC[C@@]1(O)C(=O)OCc2c1cc1n(c2=O)Cc2c-1nc1ccc(O)cc1c2CC[Si](C)(C)C
HCT-116
  GI50: < 1 nM (active)
SW-620
  GI50: 4.38 nM (active)
NCI-H226
  GI50: 19.4 nM (active)
NCI-H522
  GI50: 2.91 nM (active)
NCI-H23
  GI50: < 1 nM (active)
EKVX
  GI50: 41 nM (active)
HOP-92
  GI50: 68.2 nM (active)
RPMI-8226
  GI50: 13.1 nM (active)
SR
  GI50: < 1 nM (active)
SK-MEL-2
  GI50: 100 nM (active)
NCI-H460
  GI50: < 1 nM (active)
A549
  GI50: 3.66 nM (active)
DU-145
  GI50: < 1 nM (active)
LOX IMVI
  GI50: < 1 nM (active)
KM12
  GI50: 51.4 nM (active)
T47D
  GI50: < 1 nM (active)
UACC-257
  GI50: 2.75 nM (active)
UACC-62
  GI50: < 1 nM (active)
SK-MEL-28
  GI50: 40.2 nM (active)
BT-549
  GI50: 20.5 nM (active)
SF-539
  GI50: < 1 nM (active)
SN12C
  GI50: < 1 nM (active)
A498
  GI50: 3.83 nM (active)
SNB-19
  GI50: < 1 nM (active)
HCT-15
  GI50: 102 nM
ACHN
  GI50: < 1 nM (active)
TK-10
  GI50: 38.5 nM (active)
OVCAR-4
  GI50: 29.1 nM (active)
SK-OV-3
  GI50: < 1 nM (active)
MOLT-4
  GI50: < 1 nM (active)
SF-268
  GI50: < 1 nM (active)
OVCAR-5
  GI50: 27.2 nM (active)
MDA-N
  GI50: 13.3 nM (active)
MCF7
  GI50: < 1 nM (active)
SK-MEL-5
  GI50: 1.16 nM (active)
OVCAR-8
  GI50: 7.16 nM (active)
CAKI-1
  GI50: < 1 nM (active)
SF-295
  GI50: 1.31 nM (active)
M14
  GI50: < 1 nM (active)
PC-3
  GI50: 141 nM (active)
NCI/ADR-RES
  GI50: 48.9 nM (active)
COLO 205
  GI50: 149 nM (active)
786-0
  GI50: < 1 nM (active)
UO-31
  GI50: 4.97 nM (active)
CCRF-CEM
  GI50: < 1 nM (active)
HT-29
  GI50: 12 nM (active)
K562
  GI50: 8.39 nM (active)
HCC 2998
  GI50: 17.4 nM (active)
U-251
  GI50: < 1 nM (active)
MDA-MB-231
  GI50: 187 nM (active)
Hs-578T
  GI50: 681 nM (active)
HOP-62
  GI50: < 1 nM (active)
SNB-75
  GI50: < 1 nM (active)
RXF 393
  GI50: 2.79 nM (active)
IGROV-1
  GI50: 24.8 nM (active)
MDA-MB-435
  GI50: 7.66 nM (active)
OVCAR-3
  GI50: 24.7 nM (active)
Malme-3M
  GI50: 16 nM (active)
HL-60
  GI50: < 1 nM (active)

## CC[C@@]1(O)C(=O)OCc2c1cc1n(c2=O)Cc2c-1nc1ccc(O)cc1c2[Si](C)(C)C(C)(C)C [AR-67]
HCT-116
  GI50: < 10 nM (active)
SW-620
  GI50: < 10 nM (active)
NCI-H226
  GI50: < 10 nM (active)
NCI-H522
  GI50: < 10 nM (active)
NCI-H23
  GI50: < 10 nM (active)
EKVX
  GI50: 333 nM (active)
HOP-92
  GI50: 13.2 nM (active)
RPMI-8226
  GI50: < 15.2 nM (active)
SR
  GI50: < 10 nM (active)
SK-MEL-2
  GI50: 125 nM (active)
NCI-H460
  GI50: < 10 nM (active)
A549
  GI50: < 10 nM (active)
DU-145
  GI50: < 10 nM (active)
LOX IMVI
  GI50: < 10 nM (active)
KM12
  GI50: 24 nM (active)
T47D
  GI50: < 10 nM (active)
UACC-257
  GI50: < 14.9 nM (active)
UACC-62
  GI50: < 10 nM (active)
SK-MEL-28
  GI50: 31.7 nM (active)
BT-549
  GI50: < 15.7 nM (active)
SF-539
  GI50: < 10 nM (active)
SN12C
  GI50: < 10 nM (active)
A498
  GI50: 21.1 nM (active)
SNB-19
  GI50: < 10 nM (active)
HCT-15
  GI50: 122 nM
ACHN
  GI50: < 10 nM (active)
TK-10
  GI50: 443 nM (active)
OVCAR-4
  GI50: 28.2 nM (active)
SK-OV-3
  GI50: 557 nM (active)
MOLT-4
  GI50: < 10 nM (active)
SF-268
  GI50: < 10 nM (active)
OVCAR-5
  GI50: 139 nM (active)
MDA-N
  GI50: < 13.2 nM (active)
MCF7
  GI50: < 10 nM (active)
SK-MEL-5
  GI50: < 10 nM (active)
OVCAR-8
  GI50: < 12.3 nM (active)
CAKI-1
  GI50: < 10 nM (active)
M14
  GI50: < 10 nM (active)
PC-3
  GI50: < 20.8 nM (active)
NCI/ADR-RES
  GI50: 32.4 nM (active)
COLO 205
  GI50: 31 nM (active)
786-0
  GI50: < 10 nM (active)
UO-31
  GI50: < 10 nM (active)
CCRF-CEM
  GI50: < 10 nM (active)
HT-29
  GI50: 85.5 nM (active)
K562
  GI50: < 21.9 nM (active)
HCC 2998
  GI50: 20.5 nM (active)
U-251
  GI50: < 10 nM (active)
MDA-MB-231
  GI50: 286 nM (active)
Hs-578T
  GI50: 339 nM (active)
SNB-75
  GI50: < 10 nM (active)
RXF 393
  GI50: < 10 nM (active)
IGROV-1
  GI50: < 19 nM (active)
MDA-MB-435
  GI50: < 10 nM (active)
OVCAR-3
  GI50: 26.1 nM (active)
Malme-3M
  GI50: < 10 nM (active)
HL-60
  GI50: < 10 nM (active)
